The source of these data is article PMC8399443, “Synthesis, Biological Evaluation, and In Silico Modeling of N-Substituted Quinoxaline-2-Carboxamides” (Pharmaceuticals, 2021).

Data set [1] concerns Mtb H37Ra. The following applies: cited from earlier work.
A further data set has as its system S. epidermidis. Nature of the data set: In vitro antibacterial activity, microdilution broth (EUCAST). It counts as cell-based. The following applies: Staphylococcus epidermidis. On the technique in general: Dilution methods test growth across graded concentrations, often in twofold steps.
The test system of another data set is P. aeruginosa. The description is as above. It counts as cell-based. The settings on record: Pseudomonas aeruginosa.
A further data set relates to E. coli. The description is as above. It counts as cell-based. The following applies: Escherichia coli.
Data set [2] concerns Mtb H37Ra. The experiment in a line: In vitro antimycobacterial activity, Microplate Alamar Blue Assay (MABA). The following applies: Mycobacterium tuberculosis, H37RA, read-out: MIC Mtb H37Ra. It counts as cell-based, Mycobacterium tuberculosis.
In a further data set the test system is M. aurum. The experiment in a line: In vitro antimycobacterial activity, MABA. It counts as cell-based, Mycobacterium aurum. The following applies: Mycolicibacterium aurum; MABA; read-out: MIC M. aurum.
The next data set has as its system HepG2 cell line. The experiment in a line: In vitro cytotoxicity, CellTiter 96 (MTS). It counts as cell-based. The settings on record: Homo sapiens, read-out: HepG2 IC50.
A further data set deals with S. marcescens. The experiment in a line: In vitro antibacterial activity, microdilution broth (EUCAST). It counts as cell-based. The following applies: Serratia marcescens.
Another data set concerns E. faecalis. Described as above. It counts as cell-based. The following applies: Enterococcus faecalis.
The subject of a further data set is S. aureus. The data set is described as above. It counts as cell-based. The settings on record: Staphylococcus aureus.
Another data set concerns K. pneumoniae. Described as above. It counts as cell-based. The settings on record: Klebsiella pneumoniae.
For a further data set, the system named is M. smegmatis. The experiment in a line: In vitro antimycobacterial activity, MABA. It counts as cell-based, Mycobacterium smegmatis. The following applies: Mycolicibacterium smegmatis; MABA; read-out: MIC M. smeg.
The test system of the next data set is MRSA. The experiment in a line: In vitro antibacterial activity, microdilution broth (EUCAST). It counts as cell-based, Staphylococcus aureus methicillin resistant. The following applies: Staphylococcus aureus.
The subject of a further data set is C. parapsilosis. Nature of the data set: In vitro antifungal activity, microdilution broth (EUCAST). It counts as cell-based, Candida parapsilosis. The following applies: Lodderomyces parapsilosis.
The subject of a further data set is A. flavus. The description is as above. It counts as cell-based. The settings on record: Aspergillus flavus.
The subject of another data set is C. tropicalis. The data set is described as above. It counts as cell-based. The following applies: Candida tropicalis.
Another data set relates to C. albicans. Described as above. It counts as cell-based. The following applies: Candida albicans.
For a further data set, the system named is L. corymbifera. The description is as above. It counts as cell-based. The following applies: Lichtheimia corymbifera.
Another data set relates to T. interdigitale. The data set is described as above. The settings on record: Trichophyton interdigitale. It counts as cell-based.
Another data set has as its system A. fumigatus. Described as above. The settings on record: Aspergillus fumigatus. It counts as cell-based.
The subject of a further data set is C. krusei. Described as above. It counts as cell-based, Candida krusei. The settings on record: Pichia kudriavzevii.
Data set [3] deals with human ovarian cancer SK-OV-3 cell line. The experiment in a line: In vitro cytotoxicity. It counts as cell-based. The following applies: SK-OV-3, 24 h, read-out: Cytotoxicity IC50 SK-OV-3.
Data set [4] is described as follows: In vitro cytotoxicity, non-cancerous cells. It counts as cell-based. The settings on record: human, HK-2 kidney cortex proximal tubule cells (non-cancerous); 24 hours incubation.
In data set [5] the test system is human epithelial kidney cancer A498 cell line. Nature of the data set: In vitro cytotoxicity. It counts as cell-based. The settings on record: A498, 24 h, read-out: Cytotoxicity IC50 A498.
The subject of data set [6] is human prostate cancer PC-3 cell line. Nature of the data set: In vitro cytotoxicity. It counts as cell-based. The settings on record: PC-3, 24 h, read-out: Cytotoxicity IC50 PC-3.
The test system of data set [7] is human glioblastoma U-87 MG cell line. The experiment in a line: In vitro cytotoxicity. It counts as cell-based. The following applies: 24 h, read-out: Cytotoxicity IC50 U-87 MG.
Setting [8] is: 48 h, standards, read-out: MIC Staphylococcus epidermidis.
[9] abbreviates: 48 h, standards, read-out: MIC Pseudomonas aeruginosa.
The mark [10] stands for this setting: 48 h, standards, read-out: MIC Escherichia coli.
Where [11] appears, read: HepG2, cytotoxicity, 24 h incubation, CellTiter 96.
Where [12] appears, read: 48 h, standards, read-out: MIC Serratia marcescens.
The mark [13] stands for this setting: 48 h, standards, read-out: MIC Enterococcus faecalis.
Setting [14] is: 48 h, standards, read-out: MIC Staphylococcus aureus.
[15] abbreviates: 48 h, standards, read-out: MIC Klebsiella pneumonia.
The mark [16] stands for this setting: 48 h, standards, read-out: MIC Aspergillus flavus.
The mark [17] stands for this setting: 48 h, standards, read-out: MIC Candida albicans.
The mark [18] stands for this setting: 48 h, standards, read-out: MIC Lichtheimia corymbifera.
[19] abbreviates: 72 h, standards, read-out: MIC Trichophyton interdigitale.
Where [20] appears, read: 48 h, standards, read-out: MIC Aspergillus fumigatus.

≈ marks a conversion by molar mass, not a printed value. Where “and” joins values, the source holds several entries; their conditions need not be identical. Identical values can stand only once. Like-named read-outs stand apart in the source and are kept apart here.

In the case of `CC(=O)Oc1ccc(COC(=O)c2cnc3ccccc3n2)cc1` [4-acetoxybenzyl quinoxaline-2-carboxylate], the “MIC for Mtb H37Ra” value in the data set with Mtb H37Ra [1] (Figure 2b) is 0.5 µg/mL.

As usually defined, the MIC is the smallest concentration in the dilution series that meets the test's criterion for growth inhibition. A word on the IC50: it is the concentration that gives 50% inhibition. As for `O=C(O)c1cn(C2CC2)c2cc(N3CCNCC3)c(F)cc2c1=O` [CPX, ciprofloxacin], the MIC in the data set with S. epidermidis (setting [8]) is more than 1.02 µg/mL; in the data set with P. aeruginosa (setting [9]), 0.128 µg/mL; in the data set with E. coli (setting [10]) it was 0.008 µg/mL; with Mtb H37Ra [2] it was 0.25 µg/mL and 0.75 µM; in the data set on M. aurum, 0.0156 µg/mL (≈ 0.0471 µM); in the data set with S. marcescens (setting [12]), 0.256 µg/mL. For the same compound, the minimum inhibitory concentration (MIC) in the data set on E. faecalis (setting [13]) was 0.512 µg/mL; in the data set on S. aureus (setting [14]), 0.128 to 0.256 µg/mL; in the data set on K. pneumoniae (setting [15]) it was more than 1.02 µg/mL; in the data set on M. smegmatis it was 0.125 µg/mL (≈ 0.377 µM). Further, in the data set with HepG2 cell line (setting [11]), the IC50 was more than 500 µM.

With `CNC(C)C1CCC(N)C(OC2C(N)CC(N)C(OC3OCC(C)(O)C(NC)C3O)C2O)O1` (centres unmarked) [gentamicin], the MIC in the data set on S. epidermidis (setting [8]) is more than 8 µg/mL; in the data set with P. aeruginosa (setting [9]), 0.5 µg/mL; in the data set on E. coli (setting [10]), 1 to 2 µg/mL; in the data set on S. marcescens (setting [12]) it was 2 µg/mL; in the data set with E. faecalis (setting [13]), 8 µg/mL; in the data set on S. aureus (setting [14]) it was 1 µg/mL. Further, the minimal inhibitory concentration (MIC) is more than 8 µg/mL with K. pneumoniae (setting [15]) and 16 to 32 µg/mL in the data set on MRSA (48 h, read-out: MIC Staphylococcus aureus methicillin resistant).

Take `C[C@@H](c1ncncc1F)[C@](O)(Cn1cncn1)c1ccc(F)cc1F` [voriconazole]: the minimum inhibitory concentration (MIC) against C. parapsilosis (48 h, standards) is 8 µg/mL; with A. flavus (setting [16]) it was more than 16 µg/mL; in the data set with C. tropicalis (48 h, standards) it was more than 16 µg/mL; in the data set with C. albicans (setting [17]), more than 16 µg/mL; in the data set on L. corymbifera (setting [18]), more than 16 µg/mL; in the data set with T. interdigitale (setting [19]), more than 16 µg/mL. Also, the minimal inhibitory concentration (MIC) was 1 µg/mL in the data set on A. fumigatus (setting [20]) and 0.5 µg/mL against C. krusei (48 h, standards).

Regarding `C[C@@H]1[C@H](O)[C@@H](C)/C=C/C=C/C=C/C=C/C=C/C=C/C=C/[C@H](O[C@@H]2O[C@H](C)[C@@H](O)[C@H](N)[C@@H]2O)C[C@@H]2O[C@](O)(C[C@@H](O)C[C@@H](O)[C@H](O)CC[C@@H](O)C[C@@H](O)CC(=O)O[C@H]1C)C[C@H](O)[C@H]2C(=O)O` [amphotericin B], the minimum inhibitory concentration (MIC) in the data set on C. parapsilosis (48 h, standards) was found to be 0.5 µg/mL; in the data set with A. flavus (setting [16]), 8 µg/mL; against C. tropicalis (48 h, standards) it was 1 µg/mL; with C. albicans (setting [17]) it was 0.5 µg/mL; with L. corymbifera (setting [18]), 0.5 µg/mL; in the data set on T. interdigitale (setting [19]), 2 µg/mL. In addition, the MIC with A. fumigatus (setting [20]) is 1 µg/mL; in the data set with C. krusei (48 h, standards) it was 1 µg/mL.

With `O=C(NCc1cccc2ccccc12)c1cnc2ccccc2n1` [Compound 29, N-(naphthalen-1-ylmethyl)quinoxaline-2-carboxamide], the 50% inhibitory concentration (IC50) is 49.6 µM in [3]; more than 250 µM in data set [5]; 37.3 µM with HepG2 cell line (setting [11]); 68.5 µM in data set [6]; more than 250 µM in data set [7]. Also, the MIC in the data set on S. epidermidis (read-out: MIC S. epidermidis) is not below 500 µM; with P. aeruginosa (read-out: MIC P. aeruginosa), not below 500 µM; with E. coli (read-out: MIC E. coli) it was not below 500 µM; in the data set on Mtb H37Ra [2], ≥ 250 µg/mL and ≥ 798 µM; in the data set with C. parapsilosis it was not below 500 µM; with M. aurum, ≥ 125 µg/mL and ≥ 399 µM. The minimal inhibitory concentration (MIC) with A. flavus (read-out: MIC A. flavus), with C. tropicalis, in the data set with S. marcescens (read-out: MIC S. marcescens), with C. albicans (read-out: MIC C. albicans), with L. corymbifera (read-out: MIC L. corymbifera) and in the data set with T. interdigitale (read-out: MIC T. interdigitale) was not below 500 µM each time. Moreover, the MIC was not below 500 µM in the data set on A. fumigatus (read-out: MIC A. fumigatus); not below 500 µM with E. faecalis (read-out: MIC E. faecalis); not below 500 µM in the data set on S. aureus (read-out: MIC S. aureus); not below 500 µM with K. pneumoniae (read-out: MIC K. pneumoniae); not below 500 µM in the data set on MRSA (read-out: MIC MRSA); ≥ 125 µg/mL and ≥ 399 µM with M. smegmatis. The compound further yielded an MIC against C. krusei not below 500 µM. In [4], the IC50 at 24 h is more than 250 µM.

For `NC(=O)c1cnccn1` [PZA, pyrazinamide, reference compound], the MIC is ≥ 500 µg/mL and ≥ 4060 µM with Mtb H37Ra [2]; not below 500 µg/mL with M. aurum; not below 500 µg/mL in the data set with M. smegmatis. Also, the IC50 with HepG2 cell line (HepG2, 24 h) was more than 1000 µM. For the same compound, the “MIC for Mtb H37Ra” value with Mtb H37Ra [1] (acidic pH, Figure 2) was less than 3.91 µg/mL; in the data set with Mtb H37Ra [1] (neutral pH, Figure 2), more than 500 µg/mL.

On to `O=C(NCCc1ccccc1)c1cnc2ccccc2n1` [Compound 32, N-phenethylquinoxaline-2-carboxamide], for which the MIC in the data set with Mtb H37Ra [2], in the data set on M. aurum and in the data set on M. smegmatis was not below 500 µg/mL in each case. Also, the IC50 with HepG2 cell line (setting [11]) was more than 1000 µM.
